Test results taken from US9029080B2, “Screening assay for insecticides” (priority 2008, dated 2015).
Like-named read-outs stand apart in the source and are kept apart here.

Legend:
ShaI_delN = biological target: T1, ShaI_delN (Drosophila melanogaster, UniProt P17971); test: ShaI_delN clonal lines, FLIPR blue membrane potential dye, KCl depolarization; assay type: cell-based; settings: both the ShaI_delN clonal lines and the control pcDNA3 cell line, FLIPR
T1 construct: expressed in transfected cells; host or cells: CHO
Procedure: ShaI_DelN C10 and C15 were tested for function on the FLIPR using the Molecular Devices blue membrane potential dye. The cells were seeded at 60K cells/well in 96-well Costar plates in complete media and assayed for function at 24 hrs. Depolarization with 15-60 mM KCl caused a 2-2.8 fold higher activity in the clonal line than the pcDNA control cell line (FIG. 5). Clone 10 had slightly higher activity than clone 15.
FIG. 5: ShaI_DelN clones tested on FLIPR with KCl depolarization. We also tested some known K-channel blockers on channel activity on the FLIPR (FIG. 6). […] The ShaI_delN clonal cell lines lost their GFP expression and assay window with cell passage. At passage 12, only 10-15% of the cell population was GFP positive.
The effects of barium (Ba2+) on ShaI_delN function were tested. Barium is known to inhibit some open rectifier and inward rectifier K-channel activities. Cells were dye loaded in the presence of BaCl2 for 1 hr at RT and assayed on the FLIPR using KCl depolarization for channel activation.

[1] = biological target: T2, octopamine receptor (OctR, CG6919 dmOa2) (Drosophila melanogaster, UniProt Q9VCZ3); test: OctR clone 55 FLIPR Fluo-4 calcium assay; assay type: cell-based; settings: clone 55, same as published cAMP data
T2 construct: expressed in transfected cells; host or cells: CHO stably expressing G-alpha-16
Procedure: FIG. 62. Cells were plated at 10K/well in 384 well plates and allowed to incubate overnight at […]. The cells were assayed 18-24 hours after seeding. Media was removed and cells were dye loaded for 60 minutes with 2 μM Fluo-4. After 1 hour, dye was removed and 20 μl of buffer added to the plate and placed into FLIPR. The 1st addition was antagonist dose response curves and the 2nd addition was agonist dose response curves. Antagonists were challenged with 100 nM Octopamine. In addition, these compounds were tested in the parental cell line CHO-Galpha16.
Cells were plated at 10,000 cells/well in 50 μl into 384-well black TC plates and allowed to incubate overnight at 37° C./5% CO2. The cells were assayed 18-24 hours after seeding. Culture medium was removed by flicking and cells were dye loaded for 60 minutes with 20 μl of 2 μM Fluo-4 in assay buffer plus probenecid at 25° C. After one hour dye was removed by flicking and 20 μL of assay buffer was added, wait 5 min prior to placing into the FLIPR and run using a two-addition protocol. The first addition (20 ul, 2×) was 0.5% DMSO final in assay buffer. The second addition (20 ul, 3×) was either assay buffer or 100 nM octopamine final.

SK2 channel = SK2 channel (Homo sapiens, UniProt Q9H2S1); settings: patch clamp; cited from earlier work
[2] = biological target: T3, Shaker channel plus H-kvβ A subunit (Drosophila melanogaster, UniProt P08510, INS512V); assay type: cell-based
T3 construct: expressed in transfected cells; host or cells: CHO-K1
Procedure: In order to detect the membrane depolarization elicited by KCl injection, the Membrane Potential sensitive dye was used both for FLIPR384 and […] experiments. Cells were analyzed in 384 clear-bottom black MPTs (MATRIX cat. #4324) by seeding 5000, 7500, 10000 cells/well 24 hrs before experiment. Plates were incubated with 40 μl/w of 0.625× membrane potential dye for 45-60 minutes at 37° C. or room temperature and measured at FLIPR instrument by injecting 10 μl/w of 5× antagonist (in the presence of 0.5% DMSO, as indicated) followed by 3-5 minutes fluorescence reading; then a second injection of 25 μl/w of 3× KCl in Standard Tyrode solution) was performed and fluorescence measured for further 3-4 minutes. In experiments with a single injection (agonist), plates were incubated with 20 μl/w of 1× dye and injected with 20 μl/w of 2× KCl in Standard Tyrode solution.
Kinetic data obtained from different well replicates were analyzed with FLIPR, Excel and Spotfire software, by calculating the Integral or Maximum-Minimum RFU values after the injection; the obtained means and standard deviations were utilized to create sigmoidal dose-response fits by GraphPad PRISM® or Spotfire software and to calculate EC50-IC50 values and Z′ factors.
FIG. 42. […]

ShaI/KChIP = biological target: T4, ShaI/KChIP (Drosophila melanogaster, UniProt P17971); test: ShaI/KChIP FLIPR membrane potential assay, KCl depolarization; assay type: cell-based
T4 construct: expressed in transfected cells; subclone 18-13-20
T4 sequence (P17971 with tags, fused parts or gaps isoform P17971-1): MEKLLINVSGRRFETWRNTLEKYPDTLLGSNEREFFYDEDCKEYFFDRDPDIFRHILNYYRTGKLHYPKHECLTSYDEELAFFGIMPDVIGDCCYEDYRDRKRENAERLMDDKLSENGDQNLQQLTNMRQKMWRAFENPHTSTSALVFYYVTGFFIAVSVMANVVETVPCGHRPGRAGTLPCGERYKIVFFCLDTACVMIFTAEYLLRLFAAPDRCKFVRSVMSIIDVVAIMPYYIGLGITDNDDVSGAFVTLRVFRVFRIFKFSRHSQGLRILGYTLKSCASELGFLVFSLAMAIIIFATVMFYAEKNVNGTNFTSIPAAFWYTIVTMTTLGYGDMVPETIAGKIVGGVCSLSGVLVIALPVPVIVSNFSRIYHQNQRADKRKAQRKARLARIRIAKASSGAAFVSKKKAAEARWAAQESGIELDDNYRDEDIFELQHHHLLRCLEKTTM
Procedure: This assay uses two fluid additions to permit the detection of activators and antagonists in a single experiment (FIG. 17). In screening, test compounds are added in the first addition and allowed to incubate for three minutes. An activating dose of KCl is then introduced in the second addition and the fluorescence read for an additional three minutes. Controls are run for both additions.
Cells were dispensed in a 50 μl volume containing 7,500 cells into 384-well TC clear/black assay plates (Greiner 781091) using a Multidrop 384 dispenser, incubated at ambient temperature for one hour (to reduce edge effects), and incubated overnight at 37° C./5% CO2. The cells were assayed 18-24 hours after seeding, at which point they were just approaching confluency in the wells. Culture medium was removed by flicking and tapping it out of the plate, and cells were loaded with 20 ul/well of 1× blue membrane potential dye in assay buffer for 30 minutes at 25° C. After 30 minutes the assay plate was placed into the FLIPR and run using a two-addition protocol. The first addition (5×, 5 ul) contained 2.5% DMSO in assay buffer. The pipetting height was set at 15 and the speed 20. The plate was read for three minutes after this addition. The second addition (2×, 25 ul) was either assay buffer or 120 mM isometrically-substituted KCl (i.e., KCl substituted for NaCl on a 1:1 molar basis). The height was 20 and the speed 25. Aspirate speeds were set at the lowest values and no hold or expel volumes applied. The plate was read for an additional three minutes after the second addition. The exported statistics were typically configured as stat1=average of 190-200 (the interval just before the first addition) and stat2=maximum of 260-maximum allowed. Subtract bias was set at 1 and negative control correction was OFF. Z′ statistics (an index of “screenability”, Z′>0.5=single-pass screen) were calculated using the following formula: Z′=1−((3σmax+3σmin)/(Iμmax−μminI)).
FIG. 32: BIOMOL compounds—primary screening data. ScreenWorks screenshots showing primary FLIPR data for BIOMOL compound screening. ShaI/KChIP 20 cells were plated at 7500 cells/well in 384-well assay plates and screened the following day. Culture medium was removed by flicking the plates and the cells were loaded with 20 ul 1× membrane potential dye per well for 0.5 hours at 25° C. A two-addition protocol was used. The first addition was 5 ul 5× control or compound in 2.5% DMSO in assay buffer (0.5% [final]) read for 180 sec, and the second addition was 25 ul 2× control or 120 mM isometrically-substituted KCl in assay buffer (0-60 mM [final]) read for an additional 180 sec. Statistics were exported using the average of reads 180-200 and the maximum of reads 260-maximum allowed. Subtract bias was set at 1 and negative control correction was OFF. Control columns ½ and 23/24 are described starting on pg. 53 of this document. Inset: Screenshot of group averages for the control and compound wells highlighted in the primary data screen.
The 3222 unique members of the BioFocus SoftFocus Ion Channel Libraries #1-4 (#SF101-04) were screened in 384-well four-point mode against ShaI/KChIP at 10 uM in a combined activator and antagonist screen. The same FLIPR protocol was used as for the BIOMOL screening and was carried out over four non-consecutive days. The following compound preparation protocol was used to prepare screening plates: Briefly, ShaI-KChIP cells were seeded in 384-well plates at 7500 cells/well in 50 ul and incubated overnight at 37° C./5% CO2. The next day, culture medium was removed, 20 ul of 1×FMP dye was added, and the cell plate was incubated at 27° C. for 30 minutes. After incubation, the cell plate was placed into the Tetra and a two-addition protocol was used. The 1st addition was 5 μl of 5× compound (50 μM) with a three minute read. […] The 2nd addition was 25 ul of 2× activation buffer (120 mM isometric KCl substitution for NaCl) and read for an additional two minutes. […]

Compound: COC(=O)C1=C(C)NC(C)=C([N+](=O)[O-])C1c1ccccc1C(F)(F)F (stereo not drawn) [Bay K8644]
- inhibition of KCl depolarization (ShaI_delN): dose dependent inhibition

Compound: Cc1ccc(/N=C/N(C)/C=N/c2ccc(C)cc2C)c(C)c1 [amitraz]
- rank order of potency (agonists) [1]: naphazoline>octopamine>amitraz>clonidine>tolazoline

Compound: O=C(O)c1cccnc1Nc1cccc(C(F)(F)F)c1 [niflumic acid]
- inhibition of KCl depolarization (ShaI_delN): dose dependent inhibition

Compound: C=C[C@H]1CN2CC[C@@H]1CC2[C@@H](O)c1ccnc2ccc(OC)cc12 (stereo in doubt) [quinidine, (2-ethenyl-4-azabicyclo[2.2.2]oct-5-yl)-(6-methoxyquinolin-4-yl)-methanol]
- inhibition of KCl depolarization (ShaI_delN): dose dependent inhibition

Compound: NC(=O)N1c2ccccc2C=Cc2ccccc21 [carbamazepine]
- block of SK2 channel currents (SK2 channel): micro-molar affinity

Compound: COC(=O)C1=C(C)NC(C)=C(C(=O)OCCN(C)Cc2ccccc2)C1c1cccc([N+](=O)[O-])c1 (stereo not drawn) [nicardipine]
- inhibition of KCl depolarization (ShaI_delN): dose dependent inhibition

Compound: c1ccc2c(CC3=NCCN3)cccc2c1 [naphazoline]
- rank order of potency (agonists) [1]: naphazoline>octopamine>amitraz>clonidine>tolazoline

Compound: Nc1c2c(nc3ccccc13)CCCC2 [tacrine]
- block of SK2 channel currents (SK2 channel): micro-molar affinity

Compound: O=C(NCC1CCCCN1)c1cc(OCC(F)(F)F)ccc1OCC(F)(F)F (stereo not drawn) [Flecainide]
- inhibition of KCl depolarization (ShaI_delN): did not show any inhibition

Compound: c1ccc(CC2=NCCN2)cc1 [tolazoline]
- rank order of potency (agonists) [1]: naphazoline>octopamine>amitraz>clonidine>tolazoline

Compound: [Cl-].[K+] [KCl, reference compound]
- Activator concentration (~EC80) ([2]; in Activation buffer, high-throughput screening parameter): ~50 mM
- EC50 (ShaI/KChIP; ShaI/KChIP 18-13 cells, isometrically-substituted KCl, fixed top response, read-out: EC50): 30 mM
- EC50 (ShaI/KChIP; ShaI/KChIP 20 cells, three days, standard deviation 5 mM, read-out: EC50 mean): 36 mM

Compound: CC[N+](CC)(CC)CC [TEA, Tetraethylammonium]
- effect on KCl stimulation [2]: blocking effect is visible

Compound: CN(C)CCC=C1c2ccccc2CCc2ccccc21 [amitriptyline]
- block of SK2 channel currents (SK2 channel): micro-molar affinity
